Results: ChEMBL document CHEMBL2331428, “Synthesis of tetrazole analogues of phosphonohydroxamic acids: an attempt to improve the inhibitory activity against the DXR” (Bioorg Med Chem Lett, 2013)
Calls of active or inactive are those of the source. The calls are words filed in the database; no cut-off is given here.

What was measured:
[1] = Inhibition of N-terminal His6-tagged Escherichia coli DXR after 2 mins in presence of NADPH
Escherichia coli = test: Antibacterial activity against Escherichia coli assessed as growth inhibition at 400 nmol by disc diffusion method; type: functional, organism-based

| SMILES | IC50 [1] [µM] | growth inhibition (GI) (Escherichia coli) |
| --- | --- | --- |
| CN(O)C(=O)CCc1nnn[nH]1 | 47000 | inactive |
| CN(O)C(=O)CCCP(=O)(O)O | 0.048 | – |
| O=C(CCCCc1nnn[nH]1)NO | 44000 | inactive |

Second part, led by results:

| IC50 [1] [µM] | SMILES | growth inhibition (GI) (Escherichia coli) |
| --- | --- | --- |
| 0.032 | O=CN(O)CCCP(=O)(O)O [FOSMIDOMYCIN] | – |
| 4900 | CN(O)C(=O)CCCCc1nnn[nH]1 | inactive |
| 800 | CN(O)C(=O)CCCc1nnn[nH]1 | inactive |
